Data published in patent US9924717B2, “Molecules having pesticidal utility, and intermediates, compositions, and processes, related thereto” (Dow AgroSciences LLC, priority 2016, dated 2018).
Like-named read-outs stand apart in the source and are kept apart here.

Experiments:
Assay type in all cases: in vivo
[1] = test system: Cabbage Looper (Trichoplusia ni, TRIPNI) (CL); assay: Bioassays on Cabbage Looper (CL), 128-well diet tray assay; details: for pest or weed control at 50 µg/cm2: Table ABC rating, Cabbage Looper; for mortality at 5 µg/cm2: 168 h, diet tray, second instar larvae, five to seven days, read-out: Percent control (or mortality) CL
Protocol: (§1) Example A: Bioassays on Beet Armyworm (Spodoptera exigua, LAPHEG) (“BAW”), Corn Earworm (Helicoverpa zea, Helize) (“CEW”), and Cabbage Looper (Trichoplusia ni, TRIPNI) (“CL”)
(§2) Certain molecules disclosed in this document were tested against BAW, CEW, and CL using procedures described in the following examples. In the reporting of the results, the “BAW, CEW, & CL Rating Table” was used (See Table Section).
Bioassays on CL were conducted using a 128-well diet tray assay. one to five second instar CL larvae were placed in each well (3 mL) of the diet tray that had been previously filled with 1 mL of artificial diet to which 50 μg/cm^2 of the test molecule (dissolved in 50 μL of 90:10 acetone-water mixture) had been applied (to each of eight wells) and then allowed to dry. Trays were covered with a clear self-adhesive cover and held at 25° C., 14:10 light-dark for five to seven days. Percent mortality was recorded for the larvae in each well; activity in the eight wells was then averaged. The results are indicated in the table entitled “Table ABC: Biological Results” (See Table Section).
(§3) Bioassays on BAW and CL were conducted according to the procedures outlined in Example A: Bioassays on Beet Armyworm (“BAW”) and Cabbage Looper (“CL”) using the indicated concentrations.

[2] = test system: Yellow Fever Mosquito (Aedes aegypti, AEDSAE) (YFM); assay: Bioassays on Yellow Fever Mosquito (YFM), 96-well plate larval assay; details: Table ABC rating
Protocol: Example C: Bioassays on Yellow Fever Mosquito (Aedes aegypti, AEDSAE) (“YFM”)
Certain molecules disclosed in this document were tested against YFM using procedures described in the following paragraph. In the reporting of the results, the “GPA & YFM Rating Table” was used (See Table Section).
Master plates containing 400 μg of a molecule dissolved in 100 μL of dimethyl sulfoxide (DMSO) (equivalent to a 4000 ppm solution) are used. A master plate of assembled molecules contains 15 μL per well. To this plate, 135 μL of a 90:10 water:acetone mixture is added to each well. A robot (Biomek® NXP Laboratory Automation Workstation) is programmed to dispense 15 μL aspirations from the master plate into an empty 96-well shallow plate (“daughter” plate). There are 6 reps (“daughter” plates) created per master. The created daughter plates are then immediately infested with YFM larvae.
The day before plates are to be treated, mosquito eggs are placed in Millipore water containing liver powder to begin hatching (4 g. into 400 mL). After the daughter plates are created using the robot, they are infested with 220 μL of the liver powder/larval mosquito mixture (about 1 day-old larvae). After plates are infested with mosquito larvae, a non-evaporative lid is used to cover the plate to reduce drying. Plates are held at room temperature for 3 days prior to grading. After 3 days, each well is observed and scored based on mortality. The results are indicated in the table entitled “Table ABC: Biological Results” (See Table Section).

[3] = test system: Beet Armyworm (Spodoptera exigua, LAPHEG) (BAW); assay: Bioassays on Beet Armyworm (BAW), 128-well diet tray assay; details: for pest or weed control at 50 µg/cm2: Table ABC rating, Beet Armyworm; for mortality at 5 µg/cm2: 168 h, diet tray, second instar larvae, five to seven days, read-out: Percent control (or mortality) BAW
Protocol: as §1, §2
Bioassays on BAW were conducted using a 128-well diet tray assay. one to five second instar BAW larvae were placed in each well (3 mL) of the diet tray that had been previously filled with 1 mL of artificial diet to which 50 μg/cm^2 of the test molecule (dissolved in 50 μL of 90:10 acetone-water mixture) had been applied (to each of eight wells) and then allowed to dry. Trays were covered with a clear self-adhesive cover and held at 25° C., 14:10 light-dark for five to seven days. Percent mortality was recorded for the larvae in each well; activity in the eight wells was then averaged. The results are indicated in the table entitled “Table ABC: Biological Results” (See Table Section).
as §3

[4] = 5 μg/cm^2 (first BAW/CL column pair)
[5] = 5 μg/cm^2 as printed (second BAW/CL column pair)

## O=C(NCc1ccc(Cl)nc1)c1ccc(/C(F)=C/C(c2cc(Cl)c(Cl)c(Cl)c2)C(F)(F)F)cc1C(F)(F)F (stereo not shown) [F11, (Z)—N-((6-Chloropyridin-3-yl)methyl)-4-(1,4,4,4-tetrafluoro-3-(3,4,5-trichlorophenyl)but-1-en-1-yl)-2-(trifluoromethyl)benzamide]
[1]
  pest or weed control at 50 µg/cm2: 50 to 100%
[2]
  YFM: A (80-100)
[3]
  pest or weed control at 50 µg/cm2: 50 to 100%

## O=C(NC1CC1)c1ccc(/C(F)=C/C(c2cc(Br)c(Cl)c(Br)c2)C(F)(F)F)cc1C(F)(F)F (stereo not shown) [F12, (Z)—N-cyclopropyl-4-(3-(3,5-dibromo-4-chlorophenyl)-1,4,4,4-tetrafluorobut-1-en-1-yl)-2-(trifluoromethyl)benzamide]
[1]
  pest or weed control at 50 µg/cm2: 50 to 100%
[2]
  YFM: A (80-100)
[3]
  pest or weed control at 50 µg/cm2: 50 to 100%

## CC(NC(=O)c1ccc(/C(F)=C/C(c2cc(Cl)cc(Cl)c2)C(F)(F)F)cc1C(F)(F)F)C(F)(F)F (stereo not shown) [F15, 4-((Z)-3-(3,5-Dichlorophenyl)-1,4,4,4-tetrafluorobut-1-en-1-yl)-2-(trifluoromethyl)-N-(1,1,1-trifluoropropan-2-yl)benzamide]
[1]
  pest or weed control at 50 µg/cm2: 50 to 100%
[2]
  YFM: A (80-100)
[3]
  pest or weed control at 50 µg/cm2: 50 to 100%

## C[C@@H](NC(=O)c1ccc(/C(F)=C/C(c2ccc(Cl)c(Cl)c2)C(F)(F)F)cc1C(F)(F)F)C(F)(F)F (stereo partly drawn) [F16, 4-((Z)-3-(3,4-Dichlorophenyl)-1,4,4,4-tetrafluorobut-1-en-1-yl)-2-(trifluoromethyl)-N—((R)-1,1,1-trifluoropropan-2-yl)benzamide]
[1]
  pest or weed control at 50 µg/cm2: 50 to 100%
[2]
  YFM: A (80-100)
[3]
  pest or weed control at 50 µg/cm2: 50 to 100%

## O=C(NC1CCC(F)(F)CC1)c1ccc(/C(F)=C/C(c2cc(Cl)c(Br)c(Cl)c2)C(F)(F)F)cc1C(F)(F)F (stereo not shown) [F21]
[1]
  pest or weed control at 50 µg/cm2: 50 to 100%
[2]
  YFM: A (80-100)
[3]
  pest or weed control at 50 µg/cm2: 50 to 100%

## O=C(NC1CC1)c1ccc(/C(F)=C/C(c2cc(Cl)c(Br)c(Cl)c2)C(F)(F)F)cc1C(F)(F)F (stereo not shown) [F22, (Z)-4-(3-(4-Bromo-3,5-dichlorophenyl)-1,4,4,4-tetrafluorobut-1-en-1-yl)-N-cyclopropyl-2-(trifluoromethyl)benzamide]
[1]
  pest or weed control at 50 µg/cm2: 50 to 100%
[2]
  YFM: A (80-100)
[3]
  pest or weed control at 50 µg/cm2: 50 to 100%

## O=C(NC1CC1)c1ccc(/C(F)=C/C(c2cc(Cl)cc(Cl)c2)C(F)(F)F)cc1C(F)(F)F (stereo not shown) [F23, (Z)—N-Cyclopropyl-4-(3-(3,5-dichlorophenyl)-1,4,4,4-tetrafluorobut-1-en-1-yl)-2-(trifluoromethyl)benzamide]
[1]
  pest or weed control at 50 µg/cm2: 50 to 100%
[2]
  YFM: A (80-100)
[3]
  pest or weed control at 50 µg/cm2: 50 to 100%

## O=C(NC1CCC(F)(F)CC1)c1ccc(/C(F)=C/C(c2ccc(Cl)c(Cl)c2)C(F)(F)F)cc1C(F)(F)F (stereo not shown) [F24, (Z)-4-(3-(3,4-Dichlorophenyl)-1,4,4,4-tetrafluorobut-1-en-1-yl)-N-(4,4-difluorocyclohexyl)-2-(trifluoromethyl)benzamide]
[1]
  pest or weed control at 50 µg/cm2: 50 to 100%
[2]
  YFM: A (80-100)
[3]
  pest or weed control at 50 µg/cm2: 50 to 100%

## O=C(NC1CCC(F)(F)CC1)c1ccc(/C(F)=C/C(c2cc(Cl)cc(Cl)c2)C(F)(F)F)cc1C(F)(F)F (stereo not shown) [F25, (Z)-4-(3-(3,5-Dichlorophenyl)-1,4,4,4-tetrafluorobut-1-en-1-yl)-N-(4,4-difluorocyclohexyl)-2-(trifluoromethyl)benzamide]
[1]
  pest or weed control at 50 µg/cm2: 50 to 100%
[2]
  YFM: A (80-100)
[3]
  pest or weed control at 50 µg/cm2: 50 to 100%

## O=C(Nc1ccc(Cl)nc1)c1ccc(/C(F)=C/C(c2cc(Cl)c(Cl)c(Cl)c2)C(F)(F)F)cc1C(F)(F)F (stereo not shown) [F26]
[1]
  pest or weed control at 50 µg/cm2: 50 to 100%
[2]
  YFM: A (80-100)
[3]
  pest or weed control at 50 µg/cm2: 50 to 100%

## CC(NC(=O)c1ccc(/C(F)=C/C(c2cc(Cl)c(F)c(Cl)c2)C(F)(F)F)cc1C(F)(F)F)C(F)(F)F (stereo not shown) [F27, (Z)-4-(3-(3,5-Dichloro-4-fluorophenyl)-1,4,4,4-tetrafluorobut-1-en-1-yl)-2-(trifluoromethyl)-N-(1,1,1-trifluoropropan-2-yl)benzamide]
[1]
  pest or weed control at 50 µg/cm2: 50 to 100%
[2]
  YFM: A (80-100)
[3]
  pest or weed control at 50 µg/cm2: 50 to 100%

## CC(NC(=O)c1ccc(/C(F)=C/C(c2cc(Br)cc(Br)c2)C(F)(F)F)cc1C(F)(F)F)C(F)(F)F (stereo not shown) [F28, (Z)-4-(3-(3,5-Dibromophenyl)-1,4,4,4-tetrafluorobut-1-en-1-yl)-2-(trifluoromethyl)-N-(1,1,1-trifluoropropan-2-yl)benzamide]
[1]
  pest or weed control at 50 µg/cm2: 50 to 100%
[2]
  YFM: A (80-100)
[3]
  pest or weed control at 50 µg/cm2: 50 to 100%

## CN(CC(F)(F)F)C(=O)c1ccc(/C(F)=C/C(c2cc(Cl)c(Cl)c(Cl)c2)C(F)(F)F)cc1C(F)(F)F (stereo not shown) [F29, (Z)—N-Methyl-4-(1,4,4,4-tetrafluoro-3-(3,4,5-trichlorophenyl)but-1-en-1-yl)-N-(2,2,2-trifluoroethyl)-2-(trifluoromethyl)benzamide]
[1]
  pest or weed control at 50 µg/cm2: 50 to 100%
[2]
  YFM: A (80-100)
[3]
  pest or weed control at 50 µg/cm2: 50 to 100%

## Cc1cc(C(/C=C(\F)c2ccc(C(=O)NC(C)C(F)(F)F)c(C(F)(F)F)c2)C(F)(F)F)cc(C)c1Cl (stereo not shown) [F30, 4-((Z)-3-(4-Chloro-3,5-dimethylphenyl)-1,4,4,4-tetrafluorobut-1-en-1-yl)-2-(trifluoromethyl)-N-(1,1,1-trifluoropropan-2-yl)benzamide]
[1]
  pest or weed control at 50 µg/cm2: 50 to 100%
[2]
  YFM: A (80-100)
[3]
  pest or weed control at 50 µg/cm2: 50 to 100%

## Cc1cc(C(/C=C(\F)c2ccc(C(=O)NC3CCC(F)(F)CC3)c(C(F)(F)F)c2)C(F)(F)F)cc(C)c1Cl (stereo not shown) [F31, (Z)-4-(3-(4-Chloro-3,5-dimethylphenyl)-1,4,4,4-tetrafluorobut-1-en-1-yl)-N-(4,4difluorocyclohexyl)-2-(trifluoromethyl)benzamide]
[1]
  pest or weed control at 50 µg/cm2: 50 to 100%
[2]
  YFM: A (80-100)
[3]
  pest or weed control at 50 µg/cm2: 50 to 100%

## O=C(NCC(F)(F)F)c1ccc(/C(F)=C/C(c2cc(Cl)c(Cl)c(Cl)c2)C(F)(F)F)cc1 (stereo not shown) [FC1, (Z)-4-(1,4,4,4-tetrafluoro-3-(3,4,5-trichlorophenyl)but-1-en-1-yl)-N-(2,2,2-trifluoroethyl)benzamide]
[1]; [4]
  mortality at 5 µg/cm2: 100%
[1]; [5]
  mortality at 5 µg/cm2: 6%
[3]; [4]
  mortality at 5 µg/cm2: 25%
[3]; [5]
  mortality at 5 µg/cm2: 0%

## O=C(NC1CSC1)c1ccc(/C(F)=C/C(c2cc(Cl)c(Cl)c(Cl)c2)C(F)(F)F)cc1C(F)(F)F (stereo not shown) [PF2, (Z)-4-(1,4,4,4-Tetrafluoro-3-(3,4,5-trichlorophenyl)but-1-en-1-yl)-N-(thietan-3-yl)-2-(trifluoromethyl)benzamide]
[1]
  pest or weed control at 50 µg/cm2: 50 to 100%
[3]
  pest or weed control at 50 µg/cm2: 50 to 100%

## O=C(NC1C[S+]([O-])C1)c1ccc(/C(F)=C/C(c2cc(Cl)c(Cl)c(Cl)c2)C(F)(F)F)cc1C(F)(F)F (stereo not shown) [PF3]
[1]
  pest or weed control at 50 µg/cm2: 50 to 100%
[3]
  pest or weed control at 50 µg/cm2: 50 to 100%

## O=C(NC1CS(=O)(=O)C1)c1ccc(/C(F)=C/C(c2cc(Cl)c(Cl)c(Cl)c2)C(F)(F)F)cc1C(F)(F)F (stereo not shown) [PF4, (Z)—N-(1,1-Dioxidothietan-3-yl)-4-(1,4,4,4-tetrafluoro-3-(3,4,5-trichlorophenyl)but-1-en-1-yl)-2-(trifluoromethyl)benzamide]
[1]
  pest or weed control at 50 µg/cm2: 50 to 100%
[3]
  pest or weed control at 50 µg/cm2: 50 to 100%
